Source: patent US20020016346A1, “Method for enhancing outflow of aqueous humor in treatment of glaucoma” (The Regents University of California, a California …, priority 1994, published 2002)

Molecular target: T1, Na—K—Cl cotransport (Bos taurus, UniProt F1MS08)
T1 sequence (F1MS08 1-1204): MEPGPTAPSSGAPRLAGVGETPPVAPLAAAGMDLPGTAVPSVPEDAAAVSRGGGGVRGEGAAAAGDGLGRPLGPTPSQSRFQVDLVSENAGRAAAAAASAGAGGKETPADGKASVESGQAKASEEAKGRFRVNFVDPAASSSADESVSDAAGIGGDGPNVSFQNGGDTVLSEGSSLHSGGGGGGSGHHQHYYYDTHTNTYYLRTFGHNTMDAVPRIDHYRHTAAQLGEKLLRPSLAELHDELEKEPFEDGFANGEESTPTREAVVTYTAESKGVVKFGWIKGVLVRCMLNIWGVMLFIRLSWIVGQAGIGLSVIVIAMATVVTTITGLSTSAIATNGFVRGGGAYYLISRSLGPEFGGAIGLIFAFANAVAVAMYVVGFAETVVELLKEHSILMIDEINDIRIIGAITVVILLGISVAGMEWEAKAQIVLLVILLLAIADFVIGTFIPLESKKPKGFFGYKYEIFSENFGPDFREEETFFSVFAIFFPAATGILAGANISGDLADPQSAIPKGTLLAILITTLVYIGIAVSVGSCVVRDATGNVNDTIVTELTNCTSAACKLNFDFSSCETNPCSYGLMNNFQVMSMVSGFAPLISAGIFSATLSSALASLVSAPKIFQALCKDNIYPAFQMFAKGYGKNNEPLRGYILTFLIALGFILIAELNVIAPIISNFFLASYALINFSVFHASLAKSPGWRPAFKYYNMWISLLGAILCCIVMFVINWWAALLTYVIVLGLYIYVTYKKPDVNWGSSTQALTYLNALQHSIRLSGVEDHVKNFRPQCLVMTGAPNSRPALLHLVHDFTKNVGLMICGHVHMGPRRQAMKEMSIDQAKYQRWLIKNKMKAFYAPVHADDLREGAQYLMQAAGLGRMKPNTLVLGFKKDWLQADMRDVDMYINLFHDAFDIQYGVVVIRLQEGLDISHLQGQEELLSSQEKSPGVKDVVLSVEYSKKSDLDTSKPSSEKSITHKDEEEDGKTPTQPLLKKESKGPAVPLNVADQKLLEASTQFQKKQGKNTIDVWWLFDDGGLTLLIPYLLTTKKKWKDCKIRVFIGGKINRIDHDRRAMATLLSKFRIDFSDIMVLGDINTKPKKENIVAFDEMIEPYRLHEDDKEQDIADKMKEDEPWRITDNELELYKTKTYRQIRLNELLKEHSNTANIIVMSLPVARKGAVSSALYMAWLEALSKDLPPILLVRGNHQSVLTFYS
Test: K influx (86Rb) in bovine TM cell monolayers
Format: cell-based
Procedure: Details of this method have been published previously (O'Donnell, M. E., supra, 1989). Briefly, bovine or human TM cell monolayers on 24 well plates were equilibrated for 10 minutes at 37° C. in a Hepes-buffered minimal essential medium (MEM) containing (in mM): 144 Na, 147 Cl, 5.8 K, 1.2 Ca, 4.2 HCO3, 0.4 H2PO4, […], 0.4 SO4, 5.6 glucose and 20 Hepes. […] The assay medium also contained ^86Rb (1 μCi/ml) (Dupont New England Nuclear, Boston, Mass.). The assay was terminated by rinsing the wells with ice-cold isotonic MgCl2, then extracting the contents with 0.2% sodium dodecyl sulfate (SDS), and determining the amount of radioactive contents by liquid scintillation. Osmolarities of all preincubation and assay media were verified by osmometry (Model 3W2, Advanced Instruments, Norwood, Mass.).
The effects of hormones, neurotransmitters and second messengers on Bumetanide-sensitive K influx of bovine trabecular meshwork cells were assessed using the procedures of Example 1. […] The control is the Hepes-buffered medium containing Na, K, Cl, CA and other ions as described in Example 1B. […] The data represent the mean values±SEM of quadruplicate determinations from two experiments.

## CCCCNc1cc(C(=O)O)cc(S(N)(=O)=O)c1Oc1ccccc1 [bumetanide]
10 μM bumetanide, total K uptake without drug 49±1.47
  K influx: 22.09±1.14 μmol K/gm protein/min
With Na/K pump inhibition (ouabain)
  BUMETANIDE-SENSITIVE K INFLUX: 20.1 μmol K/gm protein/min
Without Na/K pump inhibition
  BUMETANIDE-SENSITIVE K INFLUX: 26.9 μmol K/gm protein/min
